From patent publication US6759430B2, “Piperidine and pyrrolidine derivatives comprising a nitric oxide donor for treating stress” (OxoN Medica Inc., priority 1998, dated 2004)

How the values were obtained:
[1] = in vivo blood pressure (mean arterial pressure) monitoring in anesthetized rats; set-up: species or system rat
Protocol: (§1) Materials: Male Sprague-Dawley rats (250-300 g) were purchased from the Animal Care Facility of the Hebrew University and used in the rat aortic rings (RARs) relaxation studies in vitro and the blood pressure monitoring and cGMP studies in vivo.
In the in vivo experiment, rats were anesthetized with an intraperitoneal injection of a combination of ketamine and xylazine (50 and 10 mg per kg, respectively). A catheter was placed in the right external jugular vein and introduced to the level of right atrium. A second arterial catheter was placed in the left carotid artery and introduced to the level of the ascending aorta. The tip of arterial catheter was connected to a pressure transducer which is connected to another electrical transducer connected to a computerized Experimetria system. Blood-pressure (mean arterial pressure=MAP) was recorded before (basal) and after drug administration. NO-TEMPO was injected through the venous catheter and induced a significant drop in MAP which lasts for 5 to 10 minutes. Values for basal MAP were 130±15 before and 60±10 mm Hg following a 1 mg injection of NO-TEMPO.

[2] = in vivo induction of tolerance, subcutaneous dosing; set-up: species or system rat; conditions: subcutaneously 30 mg/kg t.i.d for three consecutive days
rat aortic rings (RARs) [3] = test: in vitro vasorelaxation of epinephrine-contracted rat aortic rings; type: cell-based; conditions: control RARs contracted with epinephrine 1 μM; FIGS. 2 and 3
Protocol: as §1
In vitro vasorelaxation: Thoracic aortae were removed following anesthesia with intraperitoneal injection of ketamine and xylazine (50 and 10 mg/kg, respectively). The paraadventetial tissue surrounding the vessel was carefully removed. Aortae were cut into rings of 4-5 mm and mounted onto the tissue path. The path buffer (Krebs-bicarbonate) was constantly gassed with carbogen and maintained at 37° C. The rings were preloaded under 2 g tension and equilibrated for 90 min with buffer changed every 15 min. After stabilization, the rings were contracted with epinephrine (1 μM). Commulative Concentration-Response Curves (CCRC) were constructed for NO-TEMPO, glyceryl trinitrate (GTN) and S-nitroso-N-acetylpenicillamine (SNAP). FIGS. 2 and 3 represent the vaso-relaxant effect of NO-TEMPO as compared to the conventional NO-donors GTN and SNAP.

[4] = superoxide scavenging activity in vitro (photometric microassay, xanthine oxidase/hypoxanthine, ferricytochrome c reduction); type: biochemical; conditions: inhibition of ferricytochrome c reduction; 0.003-3 mM tested; n=5
Protocol: Assessment of superoxide scavenging activity in vitro
The superoxide scavenging activity of TEMPO-4-mononitrate (0.003-3 mM) and reference compound superoxide dismutase (SOD, 200 U/ml), were determined using a photometric microassay in vitro (Laight et al., Environ. J. Toxicol. Pharmracol., 3, 65-68, 1997) developed from the assay of McCord & Fridovich (J. Biol. Chem., 244, 6059-55, 1969). The assay mixture consisted of (final concentration): 50 μl ferricytochrome c (100 μM); 10 μl xanthine oxidase (20 mU/ml); 20 μl hypoxanthine (100 μM); and 20 μl sample dissolved in isotonic phosphate (10 mM)-buffered saline (PBS, pH 7.4) to make a total volume of 100 μl in a 96-well plate. The reaction was conducted at room temperature and initiated by the addition of hypoxanthine. The increase in optical density (OD) at […] was measured over a 3 min period of 30 s intervals and initial reaction rates determined at least in triplicate.
There was a linear relationship between the initial reaction rate and the concentration of xanthine oxidase (5-20 mU/ml) (r=0.9982, P<0.002, n=4). […] Xanthine oxidase at 20 mU/rml, which provided an initial reaction rate of 28.3±1.7 mOD/min (n=4), was adopted for subsequent inhibition studies (see McCord & Fridovich, 1969). The initial reaction rate was depressed by SOD (200 U/ml) by 95.3±1.1% (n=4, P<0.01) and by TEMPO-4-mononitrate (see FIG. 1).

rat aortic rings (RARs) [5] = test: in vitro induction of tolerance in rat aortic rings; type: cell-based; conditions: for tolerance induction in vitro: RARs pre-exposed to 0.44 mM of the drug for 1 hr; for vaso-relaxant effect on rings before and after exposure to GTN: rings exposed to 0.44 mM GTN for 1 hr, FIGS. 4 and 5; for vaso-relaxant potency, control versus NO-TEMPO-pre-treated RARs: rings exposed to 0.44 mM NO-TEMPO, FIGS. 7 and 8
Protocol: as §1
In vitro induction of GTN tolerance: Aortic rings were treated as for the control studies except that rings were exposed to 0.44 mM GTN for 1 hr. At the end of the tolerance induction period, rings were washed every 15 min for the following hour. Attempted induction of tolerance to NO-TEMPO was performed under the same conditions as for GTN with rings exposed to 0.44 mM solution of NO-TEMPO. CCRC were constructed for NO-TEMPO and GTN. […] This conclusion is further supported by separately evaluating the vaso-relaxant effect of each drug on control and NO-TEMPO-pre-treated RARs.

[6] = system: cGMP content in aortic tissue; test: vascular cGMP content after in vivo administration (RIA); set-up: species or system rat; conditions: for effect on vascular cGMP compared to GTN: intravenously in equimolar doses
Protocol: as §1
Experiments were performed in anaesthetized rats as above. Following i.v. administration of NO-TEMPO (0.1, 0.2, 0.5 mg etc.,) the thorax was opened and the aorta removed immediately (within thirty seconds from the administration). After standard processing procedures, cGMP content in the vascular tissue was measured by Radioimmunoassay (RIA) using commercially available kits (i.e., Kit 500 TRK from Amersham).

SMILES | tolerance of the hypotensive effect on MAP following successive administration [1] | tolerance induction in vivo [2] | vaso-relaxant effect compared to conventional NO-donors GTN and SNAP (rat aortic rings (RARs) [3]) | pIC50 value [4] | tolerance induction in vitro (rat aortic rings (RARs) [5]) | vaso-relaxant effect on rings before and after exposure to GTN (rat aortic rings (RARs) [5]) | vaso-relaxant potency, control versus NO-TEMPO-pre-treated RARs (rat aortic rings (RARs) [5]) | mean arterial pressure (MAP) following injection ([1]; 1 mg injection through venous catheter, basal MAP 130±15) | hypotensive effects in vivo compared to GTN and SNAP ([1]; rat, in vivo) | increase in vascular cGMP ([6]; 1 mg i.v. versus basal) | cGMP content in aortic tissue ([6]; 1 mg i.v., aorta removed within thirty seconds, basal 46±10) | tolerance of the vascular cGMP effect ([6]; NO-TEMPO pre-treated rats) | effect on cGMP content of vascular tissue ([6]; control rats) | effect on vascular cGMP compared to GTN ([6]; control rats) | effect on vascular cGMP compared to GTN ([6]; control rats, listed as NO-TEMPO)
CC(=O)N[C@H](C(=O)O)C(C)(C)SN=O (racemic) [SNAP, S-nitroso-N-acetylpenicillamine, reference compound] | attenuation to their effect on MAP develops | – | – | – | – | – | – | – | – | – | – | – | – | – | –
CC1(C)CC(O[N+](=O)[O-])CC(C)(C)N1[O] [TEMPO-4-mononitrate, 4-Nitrato-2,2,6,6-tetramethylpiperidinyloxy, free radical] | lack of tolerance development | does not induce tolerance either to itself or to GTN | superiority of NO-TEMPO to both of these NO-donors | 2.89±0.03 | does not induce tolerance neither to itself nor to GTN | significant difference | no significant difference | 60±10 mm Hg | superiority of this drug to both GTN and SNAP | 4-5 fold | 197±18 pmole/g tissue | lack of tolerance induction | significant increase | compared well with that of GTN | superior activity as compared to GTN
O=[N+]([O-])OCC(CO[N+](=O)[O-])O[N+](=O)[O-] [GTN, glyceryl trinitrate, reference compound] | attenuation to their effect on MAP develops | does induce tolerance to itself and to NO-TEMPO | – | – | induces tolerance both to itself and to NO-TEMPO | development of GTN tolerance | no significant difference | – | – | – | – | – | – | – | –
